According to patent EP2140864A2 (H. Lundbeck A/S, priority 2001, dated 2002):
Read-outs that look alike come from different tables or passages of the source.

Target: T1, human GAL3 receptor (Homo sapiens, UniProt O60755)
T1 construct: expressed in transfected cells
T1 sequence (O60755 1-368): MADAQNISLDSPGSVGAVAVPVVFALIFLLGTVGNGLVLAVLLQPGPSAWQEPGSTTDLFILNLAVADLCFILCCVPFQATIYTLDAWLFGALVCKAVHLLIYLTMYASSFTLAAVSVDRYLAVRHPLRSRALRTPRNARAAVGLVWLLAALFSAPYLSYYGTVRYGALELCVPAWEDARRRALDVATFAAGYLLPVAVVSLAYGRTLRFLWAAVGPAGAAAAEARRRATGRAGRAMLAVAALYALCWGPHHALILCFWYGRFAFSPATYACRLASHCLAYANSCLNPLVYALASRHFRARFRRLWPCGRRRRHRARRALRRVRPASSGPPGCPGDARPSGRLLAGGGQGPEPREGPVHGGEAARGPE
Test: Radioligand binding at cloned human GAL3 receptor
Conditions: cloned human receptor, read-out: Ki GalR3
Description: The present invention provides for a method of determining the binding affinity of a GAL3 antagonist, wherein the GAL3 antagonist is dissolved in a "suitable solvent". A "suitable solvent" means one which permits the measurement of binding affinity of the GAL3 antagonist to the human GAL3 receptor at concentrations less than 1 µM, preferably less than 100 nM. Examples of solvents include, but are not limited to, DMSO, ethanol, N,N-dimethylacetamide, or water. For indolones, the preferred solvent is 3% DMSO (final concentration in the assay). For pyrimidines, the preferred solvent is 1% ethanol/0.09% polypuronic acid F-127 (final concentration in the assay). For any other type of compounds, the preferred solvent is the solvent which permits the measurement of binding affinity of a GAL3 antagonist at the lowest concentration. Once a suitable solvent is ascertained for the binding assay of the human GAL3 receptor, the same solvent is used in assays to determine the binding affinity at the GAL1 receptor, the serotonin transporter, the norepinephrine transporter, and the dopamine transporter. A solvent of 0.4% DMSO is used in the central monoamine oxidase enzyme assay.
The binding properties of the pyrimidines of the present invention were evaluated at the cloned human galanin receptors, GAL1, GAL2, and GAL3, using protocols described herein.
The binding properties of the indolones of the present invention were evaluated at the cloned human galanin receptors, GAL1, GAL2, and GAL3, using protocols described herein.
LM(tk-) cells were stably transfected with the human GAL1 or GAL3 receptor. CHO cells were stably transfected with the human GAL2 receptor.
cDNAs for the human and rat GAL1, and human and rat GAL3 receptors were transfected with a G-418 resistant gene into the mouse fibroblast LM(tk-) cell line by a calcium phosphate transfection method (Cullen, 1987). Stably transfected cells were selected with G-418. Human and rat GAL2 receptors were similarly transfected into CHO cells.
Membranes were harvested from stably transfected LM(tk-) cells. Adherent cells were washed twice in ice-cold phosphate buffered saline (138 mM NaCl, 8.1 mM Na2HPO4, 2.5 mM KCl, 1.2 mM KH2PO4, 0.9 mM CaCl2, 0.5 mM MgCl2, pH 7.4) and lysed by sonication in ice-cold sonication buffer (20 mM Tris-HCl, 5 mM EDTA, pH 7.7). Large particles and debris were cleared by low speed centrifugation (200 x g, 5 min, 4°C). Membranes were collected from the supernatant fraction by centrifugation (32,000 x g, 18 min, 4°C), washed with ice-cold hypotonic buffer, and collected again by centrifugation (32,000 x g, 18 min, 4°C). The final membrane pellet was resuspended by sonication into a small volume of ice-cold binding buffer (-1 ml for every 5 plates: 10 mM NaCl, 20 mM HEPES, 0.22 mM KH2PO4, 1.26 mM CaCl2, 0.81 mM MgSO4, pH 7.4). Protein concentration was measured by the Bradford method (Bradford, 1976) using Bio-Rad Reagent, with bovine serum albumin as a standard. Membranes were held on ice for up to one hour and used fresh, or flash frozen and stored in liquid nitrogen. Membranes were prepared similarly from CHO cells.
Galanin Recentors: Binding assays were performed according to the following published methods: human GAL3 (PCT International Publication No. WO 98/15570), human GAL1 (PCT International Publication No. WO 95/2260), human GAL2 (PCT International Publication No. WO 97/26853).
Binding data were analyzed using nonlinear regression and statistical techniques available in the GraphPAD Prism package (San Diego, CA). Enzymatic assay data were derived from a standard curve of reference compound data.

Ki (indolones)	SMILES	Ki (pyrimidines)
271 nM	O=C1/C(=N\c2ccc3ncccc3c2)c2ccccc2N1c1ccsc1 [Example 291, (3Z)-3-(6-QUINOLINYLIMINO)-1-(3-THIENYL)-1,3-DIHYDRO-2H-INDOL-2-ONE]	–
260 nM	COc1ccc(/N=C2\C(=O)N(c3ccccc3)c3ccccc32)c(OC)c1 [Example 287, (3Z)-3-[(2,4-DIMETHOXYPHENYL)IMINO]-1-PHENYL-1,3-DIHYDRO-2H-INDOL-2-ONE]	–
–	COc1cccc(Nc2cc(N(C)C)nc(N3CCN(c4ccccn4)CC3)n2)c1 [Example 245]	537 nM
–	CN(C)c1cc(Nc2ccc3ccccc3c2)nc(Nc2ccccc2)n1 [Example 65]	329 nM
–	Cc1ccc(Nc2cc(N(C)C)nc(N3CCN(c4ccc(Br)cn4)CC3)n2)cc1 [Example 140]	169 nM
–	Cc1ccc(Nc2cc(N(C)C)nc(N3CCN(c4ccccn4)CC3)n2)c(Br)c1 [Example 204]	269 nM
226 nM	N#CCc1ccc(/N=C2\C(=O)N(c3ccccc3)c3ccccc32)cc1 [Example 297, (4-{[(3Z)-2-OXO-1-PHENYL-1,2-DIHYDRO-3H-INDOL-3-YLIDENE]AMINO}PHENYL)ACETONITRILE]	–
–	CN(C)c1cc(Nc2cccc(F)c2)nc(N2CCN(c3ccccn3)CC2)n1 [Example 206]	454 nM
–	Cc1cccc(Nc2cc(N(C)C)nc(Nc3ccccc3)n2)c1 [Example 52]	570 nM
27 nM	O=C1/C(=N\c2cc(F)cc(F)c2)c2ccccc2N1c1ccsc1 [Example 264, (3Z)-3-[(3,5-DIFLUOROPHENYL)IMINO]-1-(3-THIENYL)-1,3-DIHYDRO-2H-INDOL-2-ONE]	–
–	Cc1ccc(Nc2cc(N(C)C)nc(N(C)CCc3ccccc3)n2)cc1 [Example 248]	33 nM
–	Cc1ccc(Nc2cc(N(C)C)nc(N3CCN(CC4CCCO4)CC3)n2)cc1 (stereo not drawn) [Example 154]	441 nM
49 nM	Cc1noc(C)c1CN1C(=O)/C(=N\c2ccc(Cl)c(Cl)c2)c2ccccc21 [Example 255]	–
236 nM	CCOC(=O)c1cccc(/N=C2\C(=O)N(c3ccsc3)c3ccccc32)c1 [Example 266, ETHYL 3-{[(3Z)-2-OXO-1-(3-THIENYL)-1,2-DIHYDRO-3H-INDOL-3-YLIDENE]AMINO}BENZOATE]	–
521 nM	Cc1noc(C)c1CN1C(=O)/C(=N\c2cc(Cl)cc(Cl)c2)c2ccccc21 [Example 280]	–
–	CN(C)c1cc(Nc2cncc3ccccc23)nc(N2CCN(c3ccccn3)CC2)n1 [Example 120]	664 nM
–	CN(C)c1cc(Nc2ccc(F)c(F)c2F)nc(N2CCN(c3ccccn3)CC2)n1 [Example 198]	560 nM
–	CN(C)c1cc(NC23CC4CC(CC(C4)C2)C3)nc(N2CCN(Cc3ccccc3)CC2)n1 [Example 138]	52 nM
–	COCCN(CCOC)c1nc(Nc2ccc(C)cc2)cc(N2CCCCC2)n1 [Example 45]	505 nM
–	CN(C)c1cc(Nc2ccc(Cl)c(Cl)c2)nc(N2CCN(c3ccccn3)CC2)n1 [Example 124]	36 nM
–	Cc1ccc(Nc2cc(N(C)C)nc(N3CCN(Cc4ccsc4)CC3)n2)cc1 [Example 238]	331 nM
98 nM	O=C1/C(=N\c2cccc(C(F)(F)F)c2)c2cc(-c3ccccc3)ccc2N1c1ccccc1 [Example 308]	–
–	CN(C)c1cc(NC2CCC(OCc3ccccc3)CC2)nc(N2CCN(Cc3ccccc3)CC2)n1 (stereo not drawn) [Example 152]	172 nM
34 nM	O=C1/C(=N\c2ccc(Cl)cc2)c2ccccc2N1c1ccsc1 [Example 261, (3Z)-3-[(4-CHLOROPHENYL)IMINO]-1-(3-THIENYL)-1,3-DIHYDRO-2H-INDOL-2-ONE]	–
150 nM	COc1ccc2c(c1)N(c1ccccc1)C(=O)/C2=N\c1cccc(Cl)c1 [Example 302, (3Z)-3-[(3-CHLOROPHENYL)IMINO]-6-METHOXY-1-PHENYL-1,3-DIHYDRO-2H-INDOL-2-ONE]	–

Ki (indolones)	SMILES	Ki (pyrimidines)
–	CN(C)c1ccc(Nc2cc(N(C)C)nc(N3CCN(Cc4ccccc4)CC3)n2)cc1 [Example 158]	941 nM
–	CN(C)c1cc(Nc2cccc(OC(F)(F)F)c2)nc(N2CCN(c3ccccn3)CC2)n1 [Example 207]	58 nM
–	COc1cc(Nc2cc(N(C)C)nc(N3CCN(c4ccccn4)CC3)n2)cc(C(F)(F)F)c1 [Example 197]	666 nM
–	COc1ccc(Cl)cc1Nc1cc(N(C)C)nc(N2CCN(c3ccccn3)CC2)n1 [Example 220]	708 nM
–	CN(C)c1cc(Nc2ccc(F)c(F)c2)nc(N2CCN(c3ccccn3)CC2)n1 [Example 196]	443 nM
–	Cc1nc2cc(Nc3cc(N(C)C)nc(N4CCN(Cc5ccccc5)CC4)n3)ccc2s1 [Example 127]	255 nM
160 nM	O=C1/C(=N\c2ccc(-c3cccnc3)cc2)c2ccccc2N1c1ccccc1 [Example 306]	–
–	Cc1ccc(Nc2cc(N(C)C)nc(N3CCN(c4cccc(C)c4)CC3)n2)cc1 [Example 86]	227 nM
–	CN(C)c1cc(Nc2ccc(C3CCCCC3)cc2)nc(N2CCN(c3cnccn3)CC2)n1 [Example 178]	26 nM
595 nM	Cc1noc(C)c1CN1C(=O)/C(=N\c2cccc(C(F)(F)F)c2)c2ccccc21 [Example 275]	–
–	CN(C)c1cc(Nc2ccc(F)cc2)nc(N2CCN(Cc3ccccc3)CC2)n1 [Example 156]	61 nM
–	CN(C)c1cc(Nc2ccc3c(c2)OCO3)nc(N2CCN(c3ccccn3)CC2)n1 [Example 118]	508 nM
–	Cc1ccc(Nc2cc(N(C)C)nc(N3CCN(c4ncccc4C#N)CC3)n2)cc1 [Example 241]	261 nM
–	CN(C)c1cc(Nc2cccc(O)c2)nc(N2CCN(Cc3ccccc3)CC2)n1 [Example 155]	316 nM
–	COc1cc(Nc2cc(N(C)C)nc(N3CCN(c4ccccn4)CC3)n2)cc(OC)c1 [Example 202]	740 nM
–	COc1cccc(Nc2cc(N(C)C)nc(N3CCN(CC4CCCCC4)CC3)n2)c1 [Example 145]	155 nM
67 nM	COc1ccc2c(c1)N(c1ccccc1)C(=O)/C2=N\c1ccc(Cl)c(Cl)c1 [Example 258, (3Z)-3-[(3,4-DICHLOROPHENYL)IMINO]-6-METHOXY-1-PHENYL-1,3-DIHYDRO-2H-INDOL-2-ONE]	–
–	COc1cccc(Nc2cc(N(C)C)nc(N3CCN(Cc4ccccn4)CC3)n2)c1 [Example 144]	529 nM
–	CN(C)c1cc(Nc2cccc(Cc3ccccc3)c2)nc(N2CCN(c3ccccn3)CC2)n1 [Example 216]	50 nM
–	Cc1ccc(Nc2cc(N(C)C)nc(Nc3ccc(Cl)c(Cl)c3)n2)cc1 [Example 55]	48 nM
–	Cc1cc(C)cc(Nc2cc(N(C)C)nc(N3CCN(c4ccccn4)CC3)n2)c1 [Example 214]	676 nM
–	COc1cccc(CN2CCN(c3nc(Nc4cccc(OC)c4)cc(N(C)C)n3)CC2)c1 [Example 148]	276 nM
60 nM	O=C1/C(=N\c2ccc3ccccc3c2)c2ccccc2N1c1ccsc1 [Example 260, (3Z)-3-(2-NAPHTHYLIMINO)-1-(3-THIENYL)-1,3-DIHYDRO-2H-INDOL-2-ONE]	–
18 nM	O=C1/C(=N\c2ccc(Cl)c(Cl)c2)c2ccccc2N1c1cccc(C(F)(F)F)c1 [Example 256, (3Z)-3-[(3,4-DICHLOROPHENYL)IMINO]-1-[3-(TRIFLUOROMETHYL)PHENYL]-1,3-DIHYDRO-2H-INDOL-2-ONE]	–
–	CN(C)c1cc(Nc2ccc(Br)cc2Cl)nc(N2CCN(c3ccccn3)CC2)n1 [Example 217]	190 nM

SMILES	Ki (indolones)	Ki (pyrimidines)
O=C1/C(=N\c2cccc(C(F)(F)F)c2)c2ccccc2N1Cc1ccccn1 [Example 273]	202 nM	–
